Assay results from ChEMBL document CHEMBL5291721, “A preclinical secondary pharmacology resource illuminates target-adverse drug reaction associations of marketed drugs” (Nat Commun, 2023).

What was measured:
[1] = target: Voltage-gated inwardly rectifying potassium channel KCNH2 (Homo sapiens, UniProt Q12809); format: functional; settings: read-out: AC50
[2] = target: Gamma-aminobutyric acid receptor subunit alpha-1 (Rattus norvegicus, UniProt P62813); format: functional
[3] = target: T1, 5-hydroxytryptamine receptor 2C (Homo sapiens, UniProt P28335)
T1 sequence (P28335 whole entry): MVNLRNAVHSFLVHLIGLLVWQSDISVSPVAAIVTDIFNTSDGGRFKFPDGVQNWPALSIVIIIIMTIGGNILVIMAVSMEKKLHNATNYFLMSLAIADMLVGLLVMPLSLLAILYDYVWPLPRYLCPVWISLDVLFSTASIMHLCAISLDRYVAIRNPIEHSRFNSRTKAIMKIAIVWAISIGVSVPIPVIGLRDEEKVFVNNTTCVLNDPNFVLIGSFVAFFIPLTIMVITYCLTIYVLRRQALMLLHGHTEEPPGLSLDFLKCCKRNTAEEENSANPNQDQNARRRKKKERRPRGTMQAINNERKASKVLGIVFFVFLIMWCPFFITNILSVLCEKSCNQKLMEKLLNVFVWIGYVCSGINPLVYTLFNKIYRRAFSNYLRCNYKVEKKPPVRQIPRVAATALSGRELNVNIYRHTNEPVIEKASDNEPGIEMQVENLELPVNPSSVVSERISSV

[4] = target: T2, 5-hydroxytryptamine receptor 1A (Homo sapiens, UniProt P08908); format: functional, cell-based
T2 sequence (P08908 whole entry): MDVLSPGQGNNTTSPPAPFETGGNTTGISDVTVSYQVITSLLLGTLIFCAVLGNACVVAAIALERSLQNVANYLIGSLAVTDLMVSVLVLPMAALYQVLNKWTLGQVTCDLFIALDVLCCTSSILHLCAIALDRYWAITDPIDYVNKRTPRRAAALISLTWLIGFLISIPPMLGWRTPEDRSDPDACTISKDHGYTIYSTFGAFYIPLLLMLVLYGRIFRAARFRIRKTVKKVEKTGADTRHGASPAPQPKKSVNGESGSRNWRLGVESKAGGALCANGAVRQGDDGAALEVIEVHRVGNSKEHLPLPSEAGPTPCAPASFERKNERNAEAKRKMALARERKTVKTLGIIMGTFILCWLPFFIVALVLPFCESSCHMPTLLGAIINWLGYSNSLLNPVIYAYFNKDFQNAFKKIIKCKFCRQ

[5] = target: T3, Amine oxidase [flavin-containing] A (Homo sapiens, UniProt P21397); format: functional
T3 sequence (P21397 whole entry): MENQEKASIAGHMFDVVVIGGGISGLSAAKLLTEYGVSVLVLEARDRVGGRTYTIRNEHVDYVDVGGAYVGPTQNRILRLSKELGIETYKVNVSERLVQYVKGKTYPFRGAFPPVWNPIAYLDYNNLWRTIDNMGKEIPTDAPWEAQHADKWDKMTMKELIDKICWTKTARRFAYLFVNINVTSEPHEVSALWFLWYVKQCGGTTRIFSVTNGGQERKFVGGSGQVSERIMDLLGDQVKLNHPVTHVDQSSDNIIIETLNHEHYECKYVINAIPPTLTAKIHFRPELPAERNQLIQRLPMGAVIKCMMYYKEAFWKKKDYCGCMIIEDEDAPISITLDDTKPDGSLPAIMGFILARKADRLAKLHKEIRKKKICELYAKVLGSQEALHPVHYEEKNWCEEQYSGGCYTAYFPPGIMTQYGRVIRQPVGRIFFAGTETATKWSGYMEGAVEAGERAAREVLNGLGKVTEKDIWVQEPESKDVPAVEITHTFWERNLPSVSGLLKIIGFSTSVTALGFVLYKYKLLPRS

[6] = target: T4, Alpha-2A adrenergic receptor (Homo sapiens, UniProt P08913); format: functional, cell-based
T4 sequence (P08913 whole entry): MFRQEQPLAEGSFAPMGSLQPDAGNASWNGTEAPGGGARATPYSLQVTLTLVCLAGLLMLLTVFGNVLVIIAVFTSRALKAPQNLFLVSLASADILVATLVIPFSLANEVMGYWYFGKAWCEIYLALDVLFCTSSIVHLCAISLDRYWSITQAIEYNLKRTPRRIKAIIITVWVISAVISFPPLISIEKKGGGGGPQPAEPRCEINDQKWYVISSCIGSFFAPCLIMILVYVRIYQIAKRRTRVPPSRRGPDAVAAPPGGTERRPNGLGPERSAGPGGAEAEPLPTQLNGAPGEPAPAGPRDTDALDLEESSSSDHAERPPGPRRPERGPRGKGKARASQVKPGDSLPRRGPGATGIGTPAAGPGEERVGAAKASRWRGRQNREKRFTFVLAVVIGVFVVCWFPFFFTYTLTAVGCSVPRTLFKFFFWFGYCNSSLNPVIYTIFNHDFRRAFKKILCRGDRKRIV

[7] = target: T5, Muscarinic acetylcholine receptor M2 (Homo sapiens, UniProt P08172); format: functional, cell-based
T5 sequence (P08172 whole entry): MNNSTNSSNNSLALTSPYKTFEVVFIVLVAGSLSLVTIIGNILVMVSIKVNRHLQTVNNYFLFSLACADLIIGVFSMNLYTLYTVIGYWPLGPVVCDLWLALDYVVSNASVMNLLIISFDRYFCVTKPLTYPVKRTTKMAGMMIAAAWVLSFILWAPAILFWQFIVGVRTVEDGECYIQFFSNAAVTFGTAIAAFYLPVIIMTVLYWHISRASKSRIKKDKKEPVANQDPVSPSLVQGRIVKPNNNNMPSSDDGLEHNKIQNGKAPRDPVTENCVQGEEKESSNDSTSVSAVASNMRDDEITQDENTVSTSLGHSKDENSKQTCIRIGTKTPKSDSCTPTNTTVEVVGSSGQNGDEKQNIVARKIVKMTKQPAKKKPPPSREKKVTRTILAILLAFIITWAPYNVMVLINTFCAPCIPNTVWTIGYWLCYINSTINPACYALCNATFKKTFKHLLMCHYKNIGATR

[8] = target: 3',5'-cyclic-AMP phosphodiesterase 4D (Homo sapiens, UniProt Q08499); format: functional
D(1A) dopamine receptor = D(1A) dopamine receptor (Homo sapiens, UniProt P21728); format: functional, cell-based
[9] = target: Growth hormone secretagogue receptor type 1 (Homo sapiens, UniProt Q92847)
[10] = target: Sodium-dependent noradrenaline transporter (Homo sapiens, UniProt P23975)
Further: assay procedure not described here.

Chain of 3',5'-cyclic-AMP phosphodiesterase 4D (Q08499 whole entry): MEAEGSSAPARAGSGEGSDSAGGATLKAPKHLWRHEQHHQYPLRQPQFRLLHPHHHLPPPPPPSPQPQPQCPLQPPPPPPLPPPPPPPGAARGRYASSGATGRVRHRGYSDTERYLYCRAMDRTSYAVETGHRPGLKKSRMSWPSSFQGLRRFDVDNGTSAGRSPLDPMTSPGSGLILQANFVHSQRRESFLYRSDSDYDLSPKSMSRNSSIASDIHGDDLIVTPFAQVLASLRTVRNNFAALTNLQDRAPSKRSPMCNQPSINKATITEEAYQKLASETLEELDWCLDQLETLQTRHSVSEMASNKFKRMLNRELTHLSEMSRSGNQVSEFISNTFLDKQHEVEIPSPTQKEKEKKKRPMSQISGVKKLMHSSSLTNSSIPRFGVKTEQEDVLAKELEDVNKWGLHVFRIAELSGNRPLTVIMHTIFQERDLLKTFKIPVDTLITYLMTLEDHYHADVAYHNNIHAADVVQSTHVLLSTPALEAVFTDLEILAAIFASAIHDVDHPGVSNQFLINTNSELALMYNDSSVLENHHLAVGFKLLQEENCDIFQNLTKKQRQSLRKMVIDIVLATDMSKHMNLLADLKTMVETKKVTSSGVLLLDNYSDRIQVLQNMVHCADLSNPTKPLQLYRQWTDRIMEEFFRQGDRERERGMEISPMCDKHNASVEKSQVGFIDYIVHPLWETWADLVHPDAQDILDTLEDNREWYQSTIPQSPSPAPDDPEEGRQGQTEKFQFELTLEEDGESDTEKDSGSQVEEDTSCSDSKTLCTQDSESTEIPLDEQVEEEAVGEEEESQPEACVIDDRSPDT
Chain of Voltage-gated inwardly rectifying potassium channel KCNH2 (Q12809 whole entry): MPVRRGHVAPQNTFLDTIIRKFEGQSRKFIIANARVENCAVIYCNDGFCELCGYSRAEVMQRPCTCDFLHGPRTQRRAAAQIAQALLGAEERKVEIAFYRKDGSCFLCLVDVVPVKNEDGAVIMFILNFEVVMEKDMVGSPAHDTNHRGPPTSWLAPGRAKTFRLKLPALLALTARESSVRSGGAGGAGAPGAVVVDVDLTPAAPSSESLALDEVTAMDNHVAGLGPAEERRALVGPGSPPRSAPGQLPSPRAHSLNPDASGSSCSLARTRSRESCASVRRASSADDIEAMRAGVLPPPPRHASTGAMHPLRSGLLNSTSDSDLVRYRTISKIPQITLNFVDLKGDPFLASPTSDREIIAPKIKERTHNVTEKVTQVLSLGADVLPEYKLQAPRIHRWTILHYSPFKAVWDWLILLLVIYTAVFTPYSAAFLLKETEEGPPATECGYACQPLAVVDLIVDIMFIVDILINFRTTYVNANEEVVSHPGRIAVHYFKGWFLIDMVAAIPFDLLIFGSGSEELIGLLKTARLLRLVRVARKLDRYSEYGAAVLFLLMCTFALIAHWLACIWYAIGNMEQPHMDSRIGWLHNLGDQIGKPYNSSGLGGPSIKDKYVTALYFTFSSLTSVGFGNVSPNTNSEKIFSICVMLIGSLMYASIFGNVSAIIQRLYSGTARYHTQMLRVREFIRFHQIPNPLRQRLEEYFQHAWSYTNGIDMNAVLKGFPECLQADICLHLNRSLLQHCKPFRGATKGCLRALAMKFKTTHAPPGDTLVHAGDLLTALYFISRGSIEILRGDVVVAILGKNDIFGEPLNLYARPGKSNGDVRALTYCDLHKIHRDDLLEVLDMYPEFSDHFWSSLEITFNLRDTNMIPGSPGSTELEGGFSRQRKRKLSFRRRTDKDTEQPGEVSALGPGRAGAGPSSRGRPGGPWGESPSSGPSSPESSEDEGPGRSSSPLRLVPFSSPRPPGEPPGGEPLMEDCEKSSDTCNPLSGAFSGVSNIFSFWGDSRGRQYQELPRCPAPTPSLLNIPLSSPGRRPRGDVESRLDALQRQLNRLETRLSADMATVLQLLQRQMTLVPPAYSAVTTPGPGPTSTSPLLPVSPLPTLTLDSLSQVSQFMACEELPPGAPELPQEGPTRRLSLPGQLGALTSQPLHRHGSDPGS
Chain of Growth hormone secretagogue receptor type 1 (Q92847 whole entry): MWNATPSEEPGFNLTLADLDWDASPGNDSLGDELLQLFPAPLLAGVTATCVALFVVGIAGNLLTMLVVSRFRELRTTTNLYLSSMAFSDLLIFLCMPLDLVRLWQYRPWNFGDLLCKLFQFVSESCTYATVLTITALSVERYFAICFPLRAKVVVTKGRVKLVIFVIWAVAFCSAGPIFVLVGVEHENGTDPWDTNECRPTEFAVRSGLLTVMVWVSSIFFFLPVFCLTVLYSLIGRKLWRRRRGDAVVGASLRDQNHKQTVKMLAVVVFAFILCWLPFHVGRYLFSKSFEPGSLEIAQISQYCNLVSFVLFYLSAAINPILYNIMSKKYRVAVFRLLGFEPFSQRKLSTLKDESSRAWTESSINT
Chain of Gamma-aminobutyric acid receptor subunit alpha-1 (P62813 whole entry): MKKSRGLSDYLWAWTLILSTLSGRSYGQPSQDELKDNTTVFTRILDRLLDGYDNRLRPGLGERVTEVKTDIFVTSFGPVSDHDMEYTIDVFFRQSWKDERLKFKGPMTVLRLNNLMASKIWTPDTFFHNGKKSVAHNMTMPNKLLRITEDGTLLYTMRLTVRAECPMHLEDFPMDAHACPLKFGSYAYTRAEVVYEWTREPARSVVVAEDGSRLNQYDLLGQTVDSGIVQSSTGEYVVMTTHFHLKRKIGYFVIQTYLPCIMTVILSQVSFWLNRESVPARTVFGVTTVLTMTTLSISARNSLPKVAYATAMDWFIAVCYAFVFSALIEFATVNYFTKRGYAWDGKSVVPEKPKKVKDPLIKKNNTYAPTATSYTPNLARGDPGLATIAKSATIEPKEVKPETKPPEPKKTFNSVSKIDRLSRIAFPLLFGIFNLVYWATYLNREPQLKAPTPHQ
Chain of Sodium-dependent noradrenaline transporter (P23975 whole entry): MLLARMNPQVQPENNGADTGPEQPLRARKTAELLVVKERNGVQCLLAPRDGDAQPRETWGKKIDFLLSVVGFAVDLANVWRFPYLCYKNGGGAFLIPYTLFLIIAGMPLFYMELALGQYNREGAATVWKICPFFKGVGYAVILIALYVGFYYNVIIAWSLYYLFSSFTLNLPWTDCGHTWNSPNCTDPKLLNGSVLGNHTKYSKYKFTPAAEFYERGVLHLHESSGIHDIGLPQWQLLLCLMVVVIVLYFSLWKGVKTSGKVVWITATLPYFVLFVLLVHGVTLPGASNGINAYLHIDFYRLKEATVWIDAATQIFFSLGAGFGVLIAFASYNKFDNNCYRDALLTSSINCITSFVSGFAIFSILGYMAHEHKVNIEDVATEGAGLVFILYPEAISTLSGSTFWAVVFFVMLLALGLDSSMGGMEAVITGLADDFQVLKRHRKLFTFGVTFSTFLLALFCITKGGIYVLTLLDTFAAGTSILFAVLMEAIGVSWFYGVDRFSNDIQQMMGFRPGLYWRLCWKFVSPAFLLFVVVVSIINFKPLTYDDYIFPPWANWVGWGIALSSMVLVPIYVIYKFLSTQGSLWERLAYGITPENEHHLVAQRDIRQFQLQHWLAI
Chain of D(1A) dopamine receptor (P21728 whole entry): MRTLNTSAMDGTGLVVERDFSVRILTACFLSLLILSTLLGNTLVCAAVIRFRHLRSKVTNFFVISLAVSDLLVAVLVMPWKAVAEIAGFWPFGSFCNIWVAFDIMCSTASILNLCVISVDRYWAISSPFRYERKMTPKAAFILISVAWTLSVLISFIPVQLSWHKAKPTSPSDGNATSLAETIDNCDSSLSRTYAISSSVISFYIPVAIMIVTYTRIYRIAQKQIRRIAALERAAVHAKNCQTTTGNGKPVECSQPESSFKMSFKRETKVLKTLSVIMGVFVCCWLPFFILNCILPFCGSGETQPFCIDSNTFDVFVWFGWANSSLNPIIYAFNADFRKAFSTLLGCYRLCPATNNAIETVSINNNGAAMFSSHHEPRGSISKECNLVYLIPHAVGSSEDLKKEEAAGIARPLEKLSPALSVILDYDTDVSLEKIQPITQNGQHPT

For `Cc1cc(O)cc(C)c1Cl` [CHLOROXYLENOL], the AC50 [1] was > 30 µM.
`CN(C)CCCN1c2ccccc2CCc2ccc(Cl)cc21` [CLOMIPRAMINE] was tested, and the AC50 [2] was > 10 µM, the AC50 [3] was 0.53 µM and the AC50 [4] was > 30 µM. For the same compound, the AC50 [5] was > 10 µM, the AC50 [6] was > 10 µM and the AC50 [7] was > 10 µM.
`CC(=O)OCC(=O)[C@@]1(O)CC[C@H]2[C@@H]3CCC4=CC(=O)CC[C@]4(C)[C@H]3C(=O)C[C@@]21C` [CORTISONE ACETATE] was tested, and the AC50 [2] was > 30 µM, the AC50 [3] was > 30 µM and the AC50 [4] was > 30 µM. The AC50 [5] was > 30 µM and the AC50 [8] was > 30 µM.
In the case of `C#C[C@]1(O)CC[C@H]2[C@@H]3CCC4=CC(=O)CC[C@@H]4[C@H]3CC[C@@]21CC` [LEVONORGESTREL], the AC50 [1] is reported as > 30 µM.
With `O=C1c2c(O)c(=O)ccn2N([C@@H]2c3ccccc3SCc3c2ccc(F)c3F)[C@@H]2COCCN12` [BALOXAVIR] the AC50 [1] was > 30 µM.
For `CCN(CC)CCNC(=O)c1cc(Cl)c(N)cc1OC` [METOCLOPRAMIDE], the AC50 (D(1A) dopamine receptor) was > 10 µM, the AC50 [2] was > 10 µM and the AC50 [3] was > 10 µM. The AC50 [9] was > 30 µM, the AC50 [1] was 2.77 µM and the AC50 [4] was > 10 µM. The AC50 [5] was > 10 µM, the AC50 [6] was > 10 µM and the AC50 [8] was > 30 µM. For the same compound, the AC50 [10] was > 10 µM.
In the case of `CCc1nn(CCCN2CCN(c3cccc(Cl)c3)CC2)c(=O)n1CCOc1ccccc1` [NEFAZODONE], the AC50 [2] is reported as > 10 µM, the AC50 [9] is reported as > 30 µM and the AC50 [1] is reported as 0.89 µM. The AC50 [4] was 2 µM, the AC50 [5] was > 10 µM and the AC50 [8] was > 10 µM.
With `C[N+]1(C)[C@@H]2C[C@@H](OC(=O)[C@H](CO)c3ccccc3)C[C@H]1[C@@H]1O[C@@H]12` [METHSCOPOLAMINE] the AC50 [1] was > 30 µM.
With `CC1(C)O[C@@H]2C[C@H]3[C@@H]4C[C@H](F)C5=CC(=O)CC[C@]5(C)[C@H]4[C@@H](O)C[C@]3(C)[C@]2(C(=O)CO)O1` [FLURANDRENOLIDE] the AC50 [1] was > 30 µM.
In the case of `COc1cc(Nc2c(C#N)cnc3cc(OCCCN4CCN(C)CC4)c(OC)cc23)c(Cl)cc1Cl` [BOSUTINIB], the AC50 [2] is reported as > 10 µM, the AC50 [3] is reported as 7 µM and the AC50 [9] is reported as 4.3 µM. For the same compound, the AC50 [8] was > 30 µM and the AC50 [10] was > 10 µM.
`O=C(COc1ccc(Cl)cc1)N1CCN(Cc2ccc3c(c2)OCO3)CC1` [FIPEXIDE] gave an AC50 [1] of 12 µM.
`O=C1c2ccccc2C(=O)C1C(=O)C(c1ccccc1)c1ccccc1` [DIPHENADIONE] was tested, and the AC50 [1] was > 30 µM.
In the case of `C[N+](C)(C)CCCCCCCCCC[N+](C)(C)C` [DECAMETHONIUM], the AC50 [1] is reported as > 30 µM.
With `CC(=O)Oc1c(C)cc(OCC(O)CNC(C)C)c(C)c1C` (centres undefined) [METIPRANOLOL] the AC50 [1] was > 30 µM.
With `CC(N/C(=N\C#N)Nc1ccncc1)C(C)(C)C` (centres undefined) [PINACIDIL ANHYDROUS] the AC50 [1] was > 30 µM.
In the case of `O=C1CC[C@@]2(O)[C@H]3Cc4ccc(O)c5c4[C@@]2(CCN3CC2CC2)[C@H]1O5` [NALTREXONE], the AC50 [1] is reported as > 30 µM.
For `CCC(=O)c1c(O)cc(O)cc1O` [FLOPROPIONE], the AC50 [1] was > 30 µM.
